# Data reported in the supplement of paper PMC4862054.
# Legend:
# MDA-MB-468 [1] = conditions: 72 h
# Outline: (§1)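 For viability, cells received 2.5 µl CellTiter-Blue for 2 h at 37 °C and fluorescence was read at 560/590 nm. Before this, breast cancer cell lines in 20 µl suspension had been incubated for 72 h on 384-well plates pre-loaded with compound dissolved in 5 µl medium. EC50 was obtained from a percent-inhibition dose-response fit censored at the highest concentration, after normalisation of each plate to vehicle and a positive kill control; rows with a zero drug sensitivity score were discarded.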
# MDA-MB-436 [2] = conditions: 72 h
# Outline: as §1
# BT-549 [3] = conditions: 72 h
# Outline: as §1
# HCC1143 [4] = conditions: 72 h
# Outline: as §1
# SK-BR-3 [5] = conditions: 72 h
# Outline: as §1
# Hs578T [6] = conditions: 72 h
# Outline: as §1
# HCC1599 [7] = conditions: 72 h
# Outline: as §1
# DU-4475 [8] = conditions: 72 h
# Outline: as §1
# CAL-51 [9] = conditions: 72 h
# Outline: as §1
# CAL-85-1 [10] = conditions: 72 h
# Outline: as §1
# HDQ-P1 [11] = conditions: 72 h
# Outline: as §1
# CAL-148 [12] = conditions: 72 h
# Outline: (§2)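 The plates used were 384-well plates holding compound at 5 concentrations in 10-fold steps across a compound-specific 10,000-fold range, into which breast cancer cell lines were seeded in 20 µl suspension. Following 72 h incubation, CellTox Green fluorescence was read at 485/520 nm, and CellTiter-Glo luminescence was read after 10 min at room temperature. Normalisation on each plate used 0.1 % DMSO and a positive kill control. Dose-response curves gave the EC50, which was censored at the top concentration.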
# DU-4475 [13] = conditions: 72 h; remark: listed apart in the source
# Outline: as §2
# CAL-120 [14] = conditions: 72 h
# Outline: as §2
# MDA-MB-436 [15] = conditions: 72 h; remark: listed apart in the source
# Outline: as §2
# BT-549 [16] = conditions: 72 h; remark: listed apart in the source
# Outline: as §2
# HCC1143 [17] = conditions: 72 h; remark: listed apart in the source
# Outline: as §2
# SK-BR-3 [18] = conditions: 72 h; remark: listed apart in the source
# Outline: as §2
# CAL-85-1 [19] = conditions: 72 h; remark: listed apart in the source
# Outline: as §2
# Hs578T [20] = conditions: 72 h; remark: listed apart in the source
# Outline: as §2
# HCC1599 [21] = conditions: 72 h; remark: listed apart in the source
# Outline: as §2
# MDA-MB-231 [22] = conditions: 72 h
# Outline: as §2
# CAL-148 [23] = conditions: 72 h; remark: listed apart in the source
# Procedure: (§3)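 Drug sensitivity and resistance testing (DSRT) of breast cancer cell lines in 384-well plates, 5 concentrations in 10-fold dilutions over a compound-specific 10,000-fold range. After 72 h, cytotoxicity was read by CellTox Green fluorescence and viability by CellTiter-Glo luminescence (multiplexed), normalised to DMSO and benzethonium chloride controls. EC50 is the inflection point of the fitted dose-response curve (bottom asymptote free, so it can be relative for partial curves) and is censored at the highest tested concentration. Rows with DSS 0 (no meaningful response) were excluded.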
# DU-4475 [24] = conditions: 72 h; remark: listed apart in the source
# Procedure: as §3
# CAL-120 [25] = conditions: 72 h; remark: listed apart in the source
# Procedure: as §3
# MDA-MB-468 [26] = conditions: 72 h; remark: listed apart in the source
# Procedure: as §3
# CAL-51 [27] = conditions: 72 h; remark: listed apart in the source
# Procedure: as §3
# CAL-85-1 [28] = conditions: 72 h; remark: listed apart in the source
# Procedure: as §3
# Hs578T [29] = conditions: 72 h; remark: listed apart in the source
# Procedure: as §3
# BT-474 = conditions: 72 h
# Outline: as §1
# BT-549 [30] = conditions: 72 h; remark: listed apart in the source
# Procedure: as §3
# CAL-148 [31] = assay: normalised viability (% of control), CellTiter-Blue; higher = more viable cells (about 100 = DMSO control); conditions: incubation time: 72 h
# Outline: (§4)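 Vehicle (100) and a positive kill control (0) anchored the normalisation of each plate, and Z'-factor was used for quality control. Breast cancer cell lines in 20 µl suspension were incubated 72 h over compound in 5 µl medium in 384-well plates, followed by CellTiter-Blue at 560/590 nm. The value is normalised viability at a single listed concentration of the series.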
# CAL-51 [32] = assay: as above; conditions: incubation time: 72 h
# Outline: as §4
# CAL-85-1 [33] = assay: as above; conditions: incubation time: 72 h
# Outline: as §4
# HDQ-P1 [34] = assay: as above; conditions: incubation time: 72 h
# Outline: as §4
# MFM-223 [35] = conditions: 72 h
# Outline: as §1
# MCF-10A = conditions: 72 h
# Outline: as §2
# MDA-MB-453 = conditions: 72 h
# Outline: as §2
# HCC1937 [36] = conditions: 72 h
# Outline: as §2
# HDQ-P1 [37] = conditions: 72 h; remark: listed apart in the source
# Outline: as §2
# MFM-223 [38] = conditions: 72 h; remark: listed apart in the source
# Outline: as §2
# HCC1937 [39] = conditions: 72 h; remark: listed apart in the source
# Procedure: as §3
# MDA-MB-231 [40] = conditions: 72 h; remark: listed apart in the source
# Procedure: as §3
smiles,measurement,setting,value
COc1cc([C@@H]2c3cc4c(cc3[C@@H](O[C@@H]3O[C@@H]5CO[C@@H](C)O[C@H]5[C@H](O)[C@H]3O)[C@H]3COC(=O)[C@H]23)OCO4)cc(OC)c1O [Etoposide],"EC50, CellTiter-Blue viability",MDA-MB-468 [1],1810 nM
same,"EC50, CellTiter-Blue viability",MDA-MB-436 [2],2610 nM
same,"EC50, CellTiter-Blue viability",BT-549 [3],224 nM
same,"EC50, CellTiter-Blue viability",HCC1143 [4],1600 nM
same,"EC50, CellTiter-Blue viability",SK-BR-3 [5],785 nM
same,"EC50, CellTiter-Blue viability",Hs578T [6],3040 nM
same,"EC50, CellTiter-Blue viability",HCC1599 [7],1700 nM
same,"EC50, CellTiter-Blue viability",DU-4475 [8],180 nM
same,"EC50, CellTiter-Blue viability",CAL-51 [9],367 nM
same,"EC50, CellTiter-Blue viability",CAL-85-1 [10],2550 nM
same,"EC50, CellTiter-Blue viability",HDQ-P1 [11],775 nM
same,"EC50, CellTiter-Glo",CAL-148 [12],980 nM
same,"EC50, CellTiter-Glo",DU-4475 [13],1260 nM
same,"EC50, CellTiter-Glo",CAL-120 [14],1550 nM
same,"EC50, CellTiter-Glo",MDA-MB-436 [15],977 nM
same,"EC50, CellTiter-Glo",BT-549 [16],3990 nM
same,"EC50, CellTiter-Glo",HCC1143 [17],1650 nM
same,"EC50, CellTiter-Glo",SK-BR-3 [18],1210 nM
same,"EC50, CellTiter-Glo",CAL-85-1 [19],9970 nM
same,"EC50, CellTiter-Glo",Hs578T [20],1490 nM
same,"EC50, CellTiter-Glo",HCC1599 [21],1150 nM
same,"EC50, CellTiter-Glo",MDA-MB-231 [22],1850 nM
same,"EC50, CellTox Green",CAL-148 [23],3020 nM
same,"EC50, CellTox Green",DU-4475 [24],3830 nM
same,"EC50, CellTox Green",CAL-120 [25],3670 nM
same,"EC50, CellTox Green",MDA-MB-468 [26],2330 nM
same,"EC50, CellTox Green",CAL-51 [27],624 nM
same,"EC50, CellTox Green",CAL-85-1 [28],7710 nM
same,"EC50, CellTox Green",Hs578T [29],55.8 nM
Oc1nc(-c2ccc(C(F)(F)F)cc2)nc2c1CSCC2 [XAV-939],"EC50, CellTiter-Blue viability",HCC1143 [4],> 10000 nM
same,"EC50, CellTiter-Blue viability",HDQ-P1 [11],2090 nM
same,"EC50, CellTiter-Glo",MDA-MB-231 [22],172 nM
N[C@@H](CSC(c1ccccc1)(c1ccccc1)c1ccccc1)C(=O)O [S-trityl-L-cysteine],"EC50, CellTiter-Blue viability",MDA-MB-468 [1],1410 nM
same,"EC50, CellTiter-Blue viability",MDA-MB-436 [2],4580 nM
same,"EC50, CellTiter-Blue viability",BT-549 [3],18300 nM
same,"EC50, CellTiter-Blue viability",HCC1143 [4],> 40000 nM
same,"EC50, CellTiter-Blue viability",SK-BR-3 [5],1130 nM
same,"EC50, CellTiter-Blue viability",BT-474,10800 nM
same,"EC50, CellTiter-Blue viability",Hs578T [6],1910 nM
CC(C)Cn1cnc2c(N)nc3ccccc3c21 [Imiquimod],"EC50, CellTox Green",BT-549 [30],> 2500 nM
C=C(c1ccc(C(=O)O)cc1)c1cc2c(cc1C)C(C)(C)CCC2(C)C [Bexarotene] (10000 nM),normalised viability,CAL-148 [31],79.8%
same,normalised viability,CAL-51 [32],90.2%
same,normalised viability,CAL-85-1 [33],95.1%
same,normalised viability,HDQ-P1 [34],103%
C[C@]12CC[C@@H]3c4ccc(O)cc4C[C@@H](CCCCCCCCC[S+]([O-])CCCC(F)(F)C(F)(F)F)[C@H]3[C@@H]1CC[C@@H]2O (stereo not given in full) [Fulvestrant],"EC50, CellTiter-Blue viability",MFM-223 [35],74.5 nM
Cc1ccc(C(=O)Nc2ccc(CN3CCN(C)CC3)c(C(F)(F)F)c2)cc1C#Cc1cnc2cccnn12 [Ponatinib],"EC50, CellTiter-Blue viability",BT-549 [3],893 nM
same,"EC50, CellTiter-Blue viability",Hs578T [6],> 1000 nM
same,"EC50, CellTiter-Blue viability",HCC1599 [7],217 nM
same,"EC50, CellTiter-Blue viability",MFM-223 [35],8.43 nM
same,"EC50, CellTiter-Blue viability",CAL-51 [9],869 nM
same,"EC50, CellTiter-Blue viability",HDQ-P1 [11],307 nM
same,"EC50, CellTiter-Glo",DU-4475 [13],588 nM
same,"EC50, CellTiter-Glo",CAL-120 [14],162 nM
same,"EC50, CellTiter-Glo",MCF-10A,643 nM
same,"EC50, CellTiter-Glo",MDA-MB-436 [15],265 nM
same,"EC50, CellTiter-Glo",BT-549 [16],689 nM
same,"EC50, CellTiter-Glo",MDA-MB-453,> 1000 nM
same,"EC50, CellTiter-Glo",HCC1937 [36],> 1000 nM
same,"EC50, CellTiter-Glo",CAL-85-1 [19],> 1000 nM
same,"EC50, CellTiter-Glo",MDA-MB-231 [22],382 nM
same,"EC50, CellTiter-Glo",HDQ-P1 [37],220 nM
same,"EC50, CellTiter-Glo",MFM-223 [38],31.8 nM
same,"EC50, CellTox Green",CAL-120 [25],482 nM
same,"EC50, CellTox Green",HCC1937 [39],387 nM
same,"EC50, CellTox Green",MDA-MB-231 [40],231 nM
